Laboratory results taken from PubChem BioAssay (NCI).
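Five concentrations, 48 hours, 96-well plates. The concentration for full growth arrest is given as TGI.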

Tests used:
Experiment in all cases: growth of human tumour cells (NCI), 48 h
[1] = test system: SK-MEL-2 melanoma
[2] = test system: OVCAR-8 ovarian
[3] = test system: DU-145 prostate
[4] = test system: MOLT-4 leukemia
[5] = test system: CAKI-1 renal
[6] = test system: KM12 colon
[7] = test system: T-47D breast
[8] = test system: HCC-2998 colon
[9] = test system: RXF 393 renal
[10] = test system: 786-0 renal
[11] = test system: SR leukemia

SMILES | TGI [1] [µM] | TGI [2] [µM] | TGI [3] [µM] | TGI [4] [µM] | TGI [5] [µM] | TGI [6] [µM] | TGI [7] [µM] | TGI [8] [µM] | TGI [9] [µM] | TGI [10] [µM] | TGI [11] [µM]
O=C(O)C1=CN(c2ccncc2)C(c2ccco2)=CC1c1ccccc1[N+](=O)[O-] (centres undefined) | 34.3 | 54.8 | 26.7 | 14 | 34.1 | 3.4 | 25 | 3.62 | 15.5 | 4.15 | –
CCCNCC(O)CNc1ccc(NCC(O)CNCCC)c2c1C(=O)c1ccccc1C2=O (centres undefined) | 5.22 | 8.51 | 20.2 | 7.6 | 28.7 | 17.3 | 14.6 | 3.21 | – | 8.21 | 11
CC1CCC2CC1NC(=O)CCOCCC(=O)NC2(C)C (centres undefined) | – | > 100 | > 100 | > 100 | – | > 100 | > 100 | > 100 | – | > 100 | > 100
CC[C@@H]1CC[C@@H]2[C@H](CC[C@]3(C)[C@@H](OC(C)=O)CC[C@@H]23)[C@H]1C(=O)OC | 39.2 | 76.9 | 86.1 | 42 | > 100 | 52.1 | 66.8 | > 100 | 49.8 | 47.3 | –
CC(Cc1cccc2c1Nc1ccccc1S2)N(C)CCO (centres undefined) | – | > 100 | > 100 | > 100 | > 100 | > 100 | > 100 | > 100 | > 100 | > 100 | > 100
COc1ccc2c(c1)-c1nc(=O)n(CCCN(C)C)c3ccc([N+](=O)[O-])c(c13)N2 | 27.6 | 19.4 | 17.1 | 0.841 | 5.26 | 4.02 | 32.2 | 17.7 | – | 1.94 | 2.44
Nc1nc(N)c2ncn(-c3ccccc3)c2n1 | > 100 | > 100 | > 100 | > 100 | > 100 | > 100 | > 100 | > 100 | > 100 | > 100 | –
O=C(Cc1ccccc1)N/N=C(/c1nc2ccc([N+](=O)[O-])cc2[nH]c1=O)C(O)c1ccc(C(O)/C(=N/NC(=O)Cc2ccccc2)c2nc3ccc([N+](=O)[O-])cc3[nH]c2=O)cc1 (centres undefined) | > 100 | > 100 | – | – | > 100 | – | – | > 100 | > 100 | > 100 | –
C/C(=N\O)C1CC2C=C(C#N)C1N(Cc1ccccc1)C2 (centres undefined) | – | > 100 | > 100 | > 100 | > 100 | > 100 | > 100 | > 100 | > 100 | > 100 | > 100
CCCCCC#COC1CC(C)CC[C@@H]1C(C)C (some centres undefined) | > 100 | > 100 | – | – | > 100 | > 100 | – | > 100 | 86.9 | > 100 | –
Cc1ccc(SCC(CF)OC(C)n2cnc3c(Cl)nc(N)nc32)cc1 (centres undefined) | > 100 | > 100 | > 100 | > 100 | > 100 | > 100 | > 100 | > 100 | – | > 100 | > 100
CC(C)COP(C)(=O)C(N)(C(F)(F)F)C(F)(F)F (centres undefined) | > 100 | > 100 | > 100 | > 100 | > 100 | > 100 | > 100 | > 100 | – | > 100 | > 100
N#Cc1ccc(C(C2C(=O)NC(=O)NC2=O)C2C(=O)NC(=O)NC2=O)cc1 | > 100 | > 100 | – | > 100 | > 100 | > 100 | – | > 100 | – | > 100 | > 100
Cc1c(-c2nc(N)c(C#N)c(N)c2C#N)c(=O)oc2ccccc12 | > 100 | > 100 | > 100 | – | > 100 | > 100 | > 100 | > 100 | > 100 | > 100 | –
CN(C)CCN(C)C(=O)C1CCCN1C(=O)OCc1ccccc1 (centres undefined) | > 100 | > 100 | – | > 100 | – | – | – | > 100 | > 100 | > 100 | > 100
CCCCCCCCCC/C=C/C=O | > 100 | > 100 | – | > 100 | – | > 100 | – | > 100 | > 100 | – | > 100
CCOC(=O)/C(=C/c1ccccc1Br)P(=O)(OCC)OCC | 3.7 | 8.09 | – | 5.35 | 4.3 | 4.52 | – | 3.24 | 2.44 | 2.66 | –
C=CC(=O)NCNC(=O)C=C | > 100 | > 100 | – | > 100 | > 100 | > 100 | – | > 100 | – | > 100 | > 100
C(=N\NC1=NCCN1)/c1cccc2cc3ccncc3nc12 | – | 5.15 | 19.9 | 10.8 | 14.1 | 17.9 | 12.7 | 18.3 | 13.2 | 4.51 | –
CC(=O)Oc1ccc(Nn2c3ccccc3c3ccccc32)c(C)c1 | > 100 | 78.6 | – | 77.7 | – | > 100 | – | 79.5 | 80.4 | 41.7 | 65.5
C=C1CC(C)(COc2cc(=O)oc3ccccc23)OC1=O (centres undefined) | 11.8 | 24.2 | 19 | 7.15 | 6.32 | 27.3 | 13.8 | 42.9 | – | 11.8 | 11.2
CCOC(=O)Nc1n[nH]nc1Cl | > 100 | > 100 | > 100 | > 100 | > 100 | > 100 | > 100 | > 100 | > 100 | > 100 | –
O=C1C=CC(=O)c2cc(Sc3ccccc3)c(=O)c(Sc3ccccc3)cc21 | > 100 | > 100 | – | > 100 | > 100 | > 100 | – | > 100 | 51.2 | > 100 | > 100
